According to US8993628B2, “Synthetic ligands selective for LXRβ over LXRα, identification and methods of use thereof” (City of Hope, priority 2007, dated 2015):
Entries after “also recorded” stand apart in the source; their conditions may differ.

How the values were obtained:
[1] = tested on: ABCA1; test: Gene expression analysis of endogenous LXR target gene ABCA1 in H4 cells; assay type: cell-based, human; details: for induction of ABCA1 expression: H4 neuroglioma cells, compared with T0901317
Method: (§1) The effect of various concentrations of LXRβ-selective compounds on endogenous LXR target genes in H4 cells was examined. […] Induction of ABCG1, another lipid-transporter regulated by LXR, was also observed in H4 cells treated with T0901317, DY136 and DY142. […] Gene expression analysis was conducted to measure the endogenous LXR target genes. Briefly, cells were plated in a 6-well plate at the following densities/well: 0.35 million H4 cells (DMEM, 10% FBS), 0.5 million CCF-STTG1 (RPMI, 15% FBS), 1 million SH-SY5Y (RPMI, 15% FBS), or 1 million THP (RPMI, 15% FBS+100 nM TPA for 3 days to differentiate). The cells were treated the next day in serum-free DMEM supplemented with insulin, transferrin, and selenium and apoA1 (10 μg/ml). The media was harvested 24 hours later, mixed with a protease inhibitor cocktail (Roche), debris was pelleted (14000 g, 5 min.) and the supernatant saved for Aβ measurements (below). The cells were then rinsed with PBS and lysed with Trizol reagent. RNA isolation and cDNA synthesis (OmniScript, Qiagen) were as per manufacturer's protocol. Gene expression analysis was done in triplicate with 30 ng of cDNA and the following primer-sets: ABCA1, ABCG1, SREBP1c, GAPDH, HPRT (either SYBR Green or FAM-labeled LUX primers (Invitrogen). None of these primers produce primer-dimers or amplified genomic DNA (all primer-sets are intron spanning). The signal for each target gene was normalized to GAPDH and/or HPRT.

[2] = tested on: ABCG1; test: Gene expression analysis of endogenous LXR target gene ABCG1 in H4 cells; assay type: cell-based, human
Method: as §1

[3] = tested on: SREBP1c; test: Gene expression analysis of endogenous LXR target gene SREBP1c in H4 cells; assay type: cell-based, human; details: compared with T0901317
Method: as §1, with “Gene expression analysis was done in triplicate with 30 ng of cDNA and the following primer-sets: ABCA1, ABCG1, SREBP1c, GAPDH, HPRT (either SYBR Green or FAM-labeled LUX primers (Invitrogen). None of these primers produce primer-dimers or amplified genomic DNA (all primer-sets are intron spanning). The signal for each target gene was normalized to GAPDH and/or HPRT.” left out

[4] = tested on: apoE; test: Gene expression analysis of apoE in H4 cells; assay type: cell-based, human; details: H4 neuroglioma cells
[5] = target: T1, human LXRβ (Homo sapiens, UniProt P55055); test: GAL4-LXRβ reporter gene assay in transiently transfected CV-1 cells; assay type: cell-based; details: reporter gene assay, CV-1 cells; FIG. 2 left; receptor subtype not stated
T1 construct: EC50; other: reporter gene assay, CV-1 cells
T1 sequence (P55055 222-460): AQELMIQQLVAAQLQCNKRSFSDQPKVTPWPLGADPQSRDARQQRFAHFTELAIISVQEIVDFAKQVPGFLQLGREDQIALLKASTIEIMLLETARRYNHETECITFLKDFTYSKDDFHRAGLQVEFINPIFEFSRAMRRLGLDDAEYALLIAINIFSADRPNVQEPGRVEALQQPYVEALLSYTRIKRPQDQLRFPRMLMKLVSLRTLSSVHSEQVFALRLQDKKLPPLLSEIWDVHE
Method: (§2) Several potential LXR ligands were synthesized as described in Example 5. These compounds were assayed for activity on human LXRα and LXRβ using high-throughput reporter gene assays (e.g., reporter gene assays using Biomek automated workstation) in transiently transfected CV-1 cells.
(§3) In the reporter gene assay CV-1 cells were grown in Dulbecco's Modified Eagle's medium supplemented with 10% resin-charcoal stripped fetal bovine serum, 50 U/ml penicillin G and 50 μg/ml streptomycin sulfate (DMEM-FBS) at 37° C. in 5% CO2. One day prior to transfection, cells were plated to 50-80% confluence using phenol-red free DMEM-FBS. Cells were transiently transfected by lipofection with DOTAP. A GAL4 luciferase reporter construct (300 ng/10^5 cells) and cytomegalovirus driven expression vectors for GAL4-LXRα or GAL4-LXRβ (20-50 ng/10^5 cells) were added along with CMX-βgal (500 ng/10^5 cells) as an internal control. After 2 hours the liposomes were removed and cells treated for approximately 45 hours with phenol-red free DMEM-FBS containing the indicated LXR ligands. After exposure to ligand, the cells were harvested and assayed for luciferase and β-galactosidase activity. All points were assayed in triplicate. […] Use of reporter gene assays are known in the art and described for example in Sambrook et al., Molecular Cloning: A Laboratory Manual, 2nd Ed., Cold Spring Harbor Laboratory Press, Cold Spring Harbor, N.Y.

[6] = tested on: human LXRβ; test: as above; assay type: cell-based; details: for LXRβ-selectivity factor, fold activation of LXRβ/LXRα: 10 μM, CV-1 reporter gene assays; for activation of LXRβ: reporter gene assay, CV-1 cells
Method: as §2, §3

[7] = tested on: human H4 neuroglioma cells; test: Quantification of total cellular cholesterol in H4 cells (GC-MS); assay type: cell-based; details: 1 μM, 24 hours
Method: In order to confirm the effects of LXR activation on Aβ production in human cells, human H4 neuroglioma cells were treated with the pan-LXR agonist T0901317 (1 μM) for 24 hours and measured the amount of total cellular cholesterol remaining in the cells and the amount of Aβ40 secreted into the media (FIG. 1). As expected, T0901317 reduced both intracellular cholesterol levels as well as secreted Aβ40. […] Also as expected, T0901317 induced a greater than 50-fold increase in ABCA1 expression in H4 cells (FIG. 2). […] For quantification of total cellular cholesterol, H4 cells are seeded in 12-well plates at 70,000 per well. Cells are treated with DMSO (vehicle) or T0901317 in serum-free DMEM for 24 hours in presence of 10 μg/ml apoA1. Cells were lysed with 1N NaOH in 90% ethanol and 10 μM of 5α-cholestane as an internal control tracer. Cholesterol esters were hydrolyzed by incubation at 65° C. for 2 hours. Equal volume of water is added to the samples, and extracted twice with 2 volumes of hexane.

[8] = tested on: Aβ40; test: Aβ40 secreted into the media of H4 cells (ELISA kit); assay type: cell-based, human; details: 1 μM, 24 hours
Method: In order to confirm the effects of LXR activation on Aβ production in human cells, human H4 neuroglioma cells were treated with the pan-LXR agonist T0901317 (1 μM) for 24 hours and measured the amount of total cellular cholesterol remaining in the cells and the amount of Aβ40 secreted into the media (FIG. 1). As expected, T0901317 reduced both intracellular cholesterol levels as well as secreted Aβ40. […] Also as expected, T0901317 induced a greater than 50-fold increase in ABCA1 expression in H4 cells (FIG. 2). […] To quantify Aβ production, cells were cultured as described above (gene expression analysis). Media was added to the diluent Buffer provided with the kit and assayed according to the manufacturer's instructions (Biosource).

[9] = tested on: human LXRα; test: GAL4-LXRα reporter gene assay in transiently transfected CV-1 cells; assay type: cell-based
Method: as §2
In the reporter gene assay CV-1 cells were grown in Dulbecco's Modified Eagle's medium supplemented with 10% resin-charcoal stripped fetal bovine serum, 50 U/ml penicillin G and 50 μg/ml streptomycin sulfate (DMEM-FBS) at 37° C. in 5% CO2. One day prior to transfection, cells were plated to 50-80% confluence using phenol-red free DMEM-FBS. Cells were transiently transfected by lipofection with DOTAP. A GAL4 luciferase reporter construct (300 ng/10^5 cells) and cytomegalovirus driven expression vectors for GAL4-LXRα or GAL4-LXRβ (20-50 ng/10^5 cells) were added along with CMX-βgal (500 ng/10^5 cells) as an internal control. After 2 hours the liposomes were removed and cells treated for approximately 45 hours with phenol-red free DMEM-FBS containing the indicated LXR ligands. After exposure to ligand, the cells were harvested and assayed for luciferase and β-galactosidase activity. All points were assayed in triplicate. […]

[10] = tested on: C57BL/6 mice; details: 1 week of treatment; cited from earlier work
[11] = tested on: primary neuronal and astrocyte cultures; details: cited from earlier work
[12] = tested on: mouse Neuro2A cells expressing human APPswe; details: cited from earlier work
[13] = tested on: transgenic mice expressing human APPswe; details: one-week treatment; cited from earlier work
[14] = tested on: LXR; details: cited from earlier work

Compound | induction of ABCA1 expression [1] | induction of ABCG1 [2] | induction of SREBP1c [3] | ApoE expression [4] | EC50 [5] | LXRβ-selectivity factor, fold activation of LXRβ/LXRα [6] | intracellular cholesterol levels (total cellular cholesterol) [7] | secreted Aβ40 [8] | increase in ABCA1 expression ([1]; H4 cells) | activation of LXRα [9] | activation of LXRβ [6] | hypertriglyceridemia [10] | cholesterol efflux [11] | Aβ production [12] | Aβ40 and Aβ42 in the brain [13] | association of LXR with a coactivator peptide derived from SRC-1 [14]
O=C(O)Cc1cccc(OCCCN(Cc2cccc(C(F)(F)F)c2)CC(c2ccccc2)c2ccccc2)c1 [DY142, (3-{3-[(2,2-Diphenyl-ethyl)-(3-trifluoromethyl-benzyl)-amino]-propoxy}-phenyl)-acetic acid] | expected activation; also recorded: to a level nearly that of the pan-agonist T0901317 | observed | little effect; also recorded: only half that observed with T0901317 | increased by all three ligands, although the effects were slightly lower | 1 to 3 µM | 6.5 | – | – | – | – | – | – | – | – | – | –
O=C(O)Cc1cccc(OCCCN(Cc2cccc(C(F)(F)F)c2F)CC(c2ccccc2)c2ccccc2)c1 [DY136, (3-{3-[(2,2-Diphenyl-ethyl)-(2-fluoro-3-trifluoromethyl-benzyl)-amino]-propoxy}-phenyl)-acetic acid] | expected activation; also recorded: to a level nearly that of the pan-agonist T0901317 | observed | little effect; also recorded: only half that observed with T0901317 | increased | 1 to 3 µM | 3.4 | – | – | – | – | – | – | – | – | – | –
O=S(=O)(c1ccccc1)N(CC(F)(F)F)c1ccc(C(O)(C(F)(F)F)C(F)(F)F)cc1 [T0901317] | – | observed | – | increased | – | 1.7 | reduced | reduced | greater than 50 fold | activated | activated | induces severe hypertriglyceridemia | enhanced cholesterol efflux | decreased | significant decrease | –
O=C(O)Cc1cccc(OCCCN(Cc2cccc(C(F)(F)F)c2Cl)CC(c2ccccc2)c2ccccc2)c1 [GW3965] | – | – | – | – | – | 2.2 | – | – | – | activated | activated | – | – | – | – | promotes association
